Source: article PMC10350920, “Development of a 2,4-Diaminothiazole Series for the Treatment of Human African Trypanosomiasis Highlights the Importance of Static–Cidal Screening of Analogues” (Journal of Medicinal Chemistry, 2023)

Legend:
[1] = system: BSF T. b. brucei “single marker” S427; assay: Drug sensitivity assay with bloodstream-form T. brucei; format: cell-based; conditions: for EC50: Trypanosoma brucei, mean values, number of replicates in parentheses; for reduction (loss, drop off) in potency against T. brucei relative to parent analogue: SAR comparison
Protocol: (§1) Drug sensitivity assays with BSF T. b. brucei “single marker” S427 and human MRC-5 fibroblasts were conducted as previously described.[43]

[2] = Mammalian cell counter screen (MRC-5); format: cell-based, human; conditions: human, MRC-5 fibroblasts; mean values; number of replicates in parentheses
Protocol: as §1

human MRC-5 fibroblasts = assay: Mammalian cell counter screen (MRC-5); format: cell-based; conditions: selectivity index (EC50 MRC5/EC50 T. brucei)
Protocol: as §1

[3] = Mouse liver microsomal intrinsic clearance; format: in vitro ADME
Protocol: Test compounds (0.5 μM) were incubated with female CD1 mouse liver microsomes (Xenotech LLC; 0.5 mg mL^–1 50 mM potassium phosphate buffer, pH 7.4), and the reaction started with the addition of excess NADPH (8 mg mL^–1 50 mM potassium phosphate buffer, pH 7.4). Immediately, at 0 min, and then at 3, 6, 9, 15, and 30 min, an aliquot (50 μL) of the incubation mixture was removed and mixed with acetonitrile (100 μL) to stop the reaction. The internal standard was added to all samples, the samples were centrifuged to sediment the precipitated protein, and the plates were then sealed prior to UPLC–MS/MS analysis using a Quattro Premier XE (Waters Corporation, USA). XLfit (IDBS, UK) was used to calculate the exponential decay and consequently the rate constant (k) from the ratio of the peak area of the test compound to the internal standard at each time point. The rate of intrinsic clearance (CLint) of each test compound was then calculated using the following calculation [drawing 3] where V (mL mg^–1 protein) is the incubation volume mg^–1 protein added and the microsomal protein yield is taken as 52.5 mg protein g^–1 liver. Verapamil (0.5 μM) was used as a positive control to confirm acceptable assay performance.

[4] = Mouse brain penetration (brain:blood ratio); format: in vivo, female NMRI mice; conditions: female, NMRI, mouse, brain and blood, 10 mg kg^–1; mice, bolus of test compound, total compound; read-out: brain/blood (B/B) ratio
Protocol: Medicines for HAT are required to treat both acute and chronic infections, where parasites pass through the blood/brain barrier and enter the CNS. With this in mind, mice were dosed with an […] bolus of our test compounds, and compound concentrations in blood and brain were determined by UPLC–MS/MS. […] The brain fraction unbound was 0.0063 for 16 and 0.0313 for 38. Brain penetration of the series as a whole tracked with the generally accepted rules of CNS penetration, with a lower topological PSA (TPSA) and molecular weight compounds having an increased B/B ratio (Table S2 and Figure S1). However, the link between log P and the B/B ratio was slightly less convincing. […] This difference could be explained by 18 being a substrate for the P-glycoprotein efflux pump.
Each compound was dosed as an IV bolus at 10 mg kg^–1 dissolved in 15% solutol/Milli-Q (dose volume 10 mL kg^–1) to female NMRI mice (n = 3). At 30 min following the IV bolus of the test compound, mice (n = 3/time point) were placed under terminal anesthesia with isoflurane. A blood sample was taken by cardiac puncture and added to two volumes of distilled water, and the brain was removed. […] For each mouse at each time point, the concentration in the brain (ng g^–1) was divided by the concentration in blood (ng mL^–1) to give a brain: blood ratio.

[5] = Rat microsomal intrinsic clearance; format: in vitro ADME; conditions: second value of mouse/rat cell

SMILES: CC(C)C(=O)c1sc(NC2CCCCC2)nc1N [Compound 18, 1-(4-Amino-2-(cyclohexylamino)thiazol-5-yl)-2-methylpropan-1-one]
- EC50 [1]: 2400 nM
- EC50 [2]: 10 µM
- SI (human MRC-5 fibroblasts): 4
- CLint (mouse) [3]: 0.5 mL·min/g
- Kp at 30 min [4]: 0.06

SMILES: Nc1nc(Nc2ccc(F)c(F)c2)sc1C(=O)COC1CC(F)(F)C1(F)F (centres unmarked) [Compound 47, 1-(4-Amino-2-((3,4-difluorophenyl)amino)thiazol-5-yl)-2-(2,2,3,3-tetrafluorocyclobutoxy)ethanone]
- EC50 [1]: 10 nM
- EC50 [2]: 29 µM
- SI (human MRC-5 fibroblasts): 2900
- CLint (mouse) [3]: 5.2 mL·min/g
- CLint (rat) [5]: 4.4 mL·min/g

SMILES: CC(OCC(=O)c1sc(Nc2ccc(F)c(F)c2)nc1N)C(F)(F)F (centres unmarked) [Compound 50, 1-(4-Amino-2-((3,4-difluorophenyl)amino)thiazol-5-yl)-2-((1,1,1-trifluoropropan-2-yl)oxy)ethanone]
- EC50 [1]: 6 nM
- EC50 [2]: > 50 µM
- SI (human MRC-5 fibroblasts): 8333
- CLint (mouse) [3]: 7.4 mL·min/g
- CLint (rat) [5]: 2.9 mL·min/g

SMILES: CC(OCC(=O)c1sc(Nc2ccc(Cl)cc2)nc1N)C(F)(F)F (centres unmarked) [Compound 51, 1-(4-Amino-2-((4-chlorophenyl)amino)thiazol-5-yl)-2-((1,1,1-trifluoropropan-2-yl)oxy)ethanone]
- EC50 [1]: 8 nM
- EC50 [2]: > 50 µM
- SI (human MRC-5 fibroblasts): 6250
- CLint (mouse) [3]: 5.3 mL·min/g
- CLint (rat) [5]: 1.7 mL·min/g
- Kp at 30 min [4]: 0.9

SMILES: CC(OCC(=O)c1sc(Nc2ccc(C(F)(F)F)cc2)nc1N)C(F)(F)F (centres unmarked) [Compound 52, 1-(4-Amino-((4-(trifluoromethyl)phenyl)amino)thiazol-5-yl)-2-((1,1,1-trifluoropropan-2-yl)oxy)ethanone]
- reduction (loss, drop off) in potency against T. brucei relative to parent analogue [1]: 10 fold
- EC50 [1]: 70 nM
- EC50 [2]: 38 µM
- SI (human MRC-5 fibroblasts): 543
- CLint (mouse) [3]: 2.3 mL·min/g
- CLint (rat) [5]: 0.5 mL·min/g

SMILES: CC(OCC(=O)c1sc(Nc2ccc3c(c2)OC(F)(F)O3)nc1N)C(F)(F)F (centres unmarked) [Compound 53, 1-(4-Amino-2-((2,2-difluorobenzo[d][1,3]dioxol-5-yl)amino)thiazol-5-yl)-2-((1,1,1-trifluoropropan-2-yl)oxy)ethan-1-one]
- EC50 [1]: 30 nM
- EC50 [2]: > 50 µM
- SI (human MRC-5 fibroblasts): 1667
- CLint (mouse) [3]: 5 mL·min/g
- CLint (rat) [5]: 1.2 mL·min/g

SMILES: COc1ccc(Nc2nc(N)c(C(=O)COC(C)C(F)(F)F)s2)cn1 (centres unmarked) [Compound 57, 1-(4-Amino-2-((6-methoxypyridin-3-yl)amino)thiazol-5-yl)-2-((1,1,1-trifluoropropan-2-yl)oxy)ethanone]
- EC50 [1]: 70 nM
- EC50 [2]: > 50 µM
- SI (human MRC-5 fibroblasts): 714
- CLint (mouse) [3]: 9.0 mL·min/g
- CLint (rat) [5]: 2.4 mL·min/g

SMILES: Nc1nc(Nc2ccc(F)c(F)c2)sc1C(=O)CN1CCCC1 [Compound 58, 1-(4-Amino-2-((3,4-difluorophenyl)amino)thiazol-5-yl)-2-(pyrrolidin-1-yl)ethanone]
- EC50 [1]: 90 nM
- EC50 [2]: 48 µM
- SI (human MRC-5 fibroblasts): 533
- CLint (mouse) [3]: 2.1 mL·min/g
- CLint (rat) [5]: 2.2 mL·min/g

SMILES: CC1CCCN1CC(=O)c1sc(Nc2ccc(F)c(F)c2)nc1N (centres unmarked) [Compound 59, 1-(4-Amino-2-((3,4-difluorophenyl)amino)thiazol-5-yl)-2-(2-methylpyrrolidin-1-yl)ethanone]
- EC50 [1]: 50 nM
- EC50 [2]: > 50 µM
- SI (human MRC-5 fibroblasts): 1000
- CLint (mouse) [3]: 5.2 mL·min/g
- CLint (rat) [5]: 3.1 mL·min/g

SMILES: Nc1nc(Nc2ccc(F)c(F)c2)sc1C(=O)CN1CCCC1C(F)(F)F (centres unmarked) [Compound 60, 1-(4-Amino-2-((3,4-difluorophenyl)amino)thiazol-5-yl)-2-(2-(trifluoromethyl)pyrrolidin-1-yl)ethanone]
- EC50 [1]: 20 nM
- EC50 [2]: 32 µM
- SI (human MRC-5 fibroblasts): 1600
- CLint (mouse) [3]: 26 mL·min/g
- CLint (rat) [5]: 10 mL·min/g

SMILES: Nc1nc(Nc2ccc(F)c(F)c2)sc1C(=O)CN1CCCCC1 [Compound 61, 1-(4-Amino-2-((3,4-difluorophenyl)amino)thiazol-5-yl)-2-(piperidin-1-yl)ethanone]
- EC50 [1]: 60 nM
- EC50 [2]: 49 µM
- SI (human MRC-5 fibroblasts): 816
- CLint (mouse) [3]: 7.7 mL·min/g
- CLint (rat) [5]: 6.7 mL·min/g

SMILES: Nc1nc(Nc2ccc(F)c(F)c2)sc1C(=O)CCN1CCOCC1 [Compound 64, 1-(4-Amino-2-((3,4-difluorophenyl)amino)thiazol-5-yl)-3-morpholinopropan-1-one]
- reduction (loss, drop off) in potency against T. brucei relative to parent analogue [1]: > 110 fold
- EC50 [1]: 5000 nM
- EC50 [2]: 29 µM
- SI (human MRC-5 fibroblasts): 6
- CLint (mouse) [3]: 1.2 mL·min/g
- CLint (rat) [5]: 8.3 mL·min/g

SMILES: Nc1nc(Nc2ccc(F)c(F)c2)sc1C(=O)CN1C[C@@H]2C[C@H]1CO2 [Compound 65, 1-(4-Amino-2-((3,4-difluorophenyl)amino)thiazol-5-yl)-2-((1S,4S)-2-oxa-5-azabicyclo[2.2.1]heptan-5-yl)ethanone]
- EC50 [1]: 40 nM
- EC50 [2]: > 50 µM
- SI (human MRC-5 fibroblasts): 1250
- CLint (mouse) [3]: 4.1 mL·min/g
- CLint (rat) [5]: 4.9 mL·min/g

SMILES: Nc1nc(Nc2ccc(F)c(F)c2)sc1C(=O)CN1C[C@H]2CC[C@@H](C1)O2 [Compound 66, 1-(4-Amino-2-((3,4-difluorophenyl)amino)thiazol-5-yl)-2-((1R,5S)-8-oxa-3-azabicyclo[3.2.1]octan-3-yl)ethanone]
- EC50 [1]: 110 nM
- EC50 [2]: > 50 µM
- SI (human MRC-5 fibroblasts): 455
- CLint (mouse) [3]: 8.8 mL·min/g
- CLint (rat) [5]: 15.1 mL·min/g

SMILES: Nc1nc(Nc2ccc(F)c(F)c2)sc1C(=O)CN1CCCC(F)(F)C1 [Compound 67, 1-(4-Amino-2-((3,4-difluorophenyl)amino)thiazol-5-yl)-2-(3,3-difluoropiperidin-1-yl)ethanone]
- EC50 [1]: 20 nM
- EC50 [2]: 5 µM
- SI (human MRC-5 fibroblasts): 250
- CLint (mouse) [3]: 33 mL·min/g
- CLint (rat) [5]: 20 mL·min/g

SMILES: Nc1nc(Nc2ccc(F)c(F)c2)sc1C(=O)CN1CCC(F)(F)CC1 [Compound 68, 1-(4-Amino-2-((3,4-difluorophenyl)amino)thiazol-5-yl)-2-(4,4-difluoropiperidin-1-yl)ethanone]
- EC50 [1]: 20 nM
- EC50 [2]: 47 µM
- SI (human MRC-5 fibroblasts): 2350
- CLint (mouse) [3]: 9.3 mL·min/g
- CLint (rat) [5]: 11 mL·min/g
